Results: patent publication US8314121B2, “Imidazolone derivatives, preparation thereof as drugs, pharmaceutical compositions, and use thereof as protein kinase inhibitors, in particular CDC7” (Sanofi, priority 2006, dated 2012)

SMILES	melting point [°C]
O=C1NC(CC2CC2)=N/C1=C\c1c[nH]c2ncccc12 [Example 77, (5Z)-2-(cyclopropylmethyl)-5-(1H-pyrrolo[2,3-b]pyridin-3-ylmethylidene)-3,5-dihydro-4H-imidazol-4-one]	289
O=C1NC(=S)N/C1=C\c1c[nH]c2ncc(-c3ccccc3)cc12 [Example 16, (5Z)-5-[(5-phenyl-1H-pyrrolo[2,3-b]pyridin-3-yl)methylene]-2-thioxoimidazolidin-4-one]	265 to 270
CC(C)SC1=N/C(=C\c2c[nH]c3ncc(Cl)cc23)C(=O)N1 [Example 63, (5Z)-5-[(5-chloro-1H-pyrrolo[2,3-b]pyridin-3-yl)methylidene]-2-((1-methyl)ethylsulphanyl)-3,5-dihydro-4H-imidazol-4-one]	291 to 293
Cc1cnc2[nH]cc(/C=C3\N=C(NCC(C)C)NC3=O)c2c1 [Example 44, (5Z)-2-[(2-methylpropyl)amino]-5-[(5-methyl-1H-pyrrolo[2,3-b]pyridin-3-yl)methylidene]-3,5-dihydro-4H-imidazol-4-one]	338 to 339
O=C1NC(N2CCCC2)=N/C1=C\c1c[nH]c2ncc(Cl)cc12 [Example 27, (5Z)-5-[(5-chloro-1H-pyrrolo[2,3-b]pyridin-3-yl)methylidene]-2-pyrrolidin-1-yl-3,5-dihydro-4H-imidazol-4-one]	350 to 360
CCCCC1=N/C(=C\c2c[nH]c3ncc(Cl)cc23)C(=O)N1 [Example 64, (5Z)-2-butyl-5-[(5-chloro-1H-pyrrolo[2,3-b]pyridin-3-yl)methylidene]-3,5-dihydro-4H-imidazol-4-one]	288 to 290
O=C1NC(CCc2ccccc2)=N/C1=C\c1c[nH]c2ncccc12 [Example 67, (5Z)-2-(2-Phenylethyl)-5-(1H-pyrrolo[2,3-b]pyridin-3-ylmethylidene)-3,5-dihydro-4H-imidazol-4-one]	270 to 272
O=C1NC(N2CCCCCC2)=N/C1=C\c1c[nH]c2ncc(Cl)cc12 [Example 25, (5Z)-2-azepan-1-yl-5-[(5-chloro-1H-pyrrolo[2,3-b]pyridin-3-yl)methylidene]-3,5-dihydro-4H-imidazol-4-one]	310 to 320
O=C1NC(N2CCCCCC2)=N/C1=C\c1c[nH]c2ncc(-c3ccccc3)cc12 [Example 42, (5Z)-2-azepan-1-yl-5-[(5-phenyl-1H-pyrrolo[2,3-b]pyridin-3-yl)methylidene]-3,5-dihydro-4H-imidazol-4-one]	302
O=C1NC(NCC2CC2)=N/C1=C\c1c[nH]c2ncc(N3CCOCC3)cc12 [Example 51, (5Z)-2-[(cyclopropylmethyl)amino]-5-[(5-morpholin-4-yl-1H-pyrrolo[2,3-b]pyridin-3-yl)methylidene]-3,5-dihydro-4H-imidazol-4-one]	331
CC(C)CC1=N/C(=C\c2c[nH]c3ncccc23)C(=O)N1 [Example 74, (5Z)-2-(2-methylpropyl)-5-(1H-pyrrolo[2,3-b]pyridin-3-ylmethylidene)-3,5-dihydro-4H-imidazol-4-one]	292 to 293
CC(C)C1=N/C(=C\c2c[nH]c3ncc(Cl)cc23)C(=O)N1C [Example 82, (5Z)-5-[(5-chloro-1H-pyrrolo[2,3-b]pyridin-3-yl)methylidene]-3-methyl-2-(1-methylethyl)-3,5-dihydro-4H-imidazol-4-one]	282
COc1cnc2[nH]cc(/C=C3\N=C(NCC4CC4)NC3=O)c2c1 [Example 34, (5Z)-2-[(cyclopropylmethyl)amino]-5-[(5-methoxy-1H-pyrrolo[2,3-b]pyridin-3-yl)methylidene]-3,5-dihydro-4H-imidazol-4-one]	280 to 286
CCCN1C(=O)/C(=C/c2c[nH]c3ncccc23)N=C1C [Example 87, (5Z)-2-methyl-3-propyl-5-(1H-pyrrolo[2,3-b]pyridin-3-ylmethylidene)-3,5-dihydro-4H-imidazol-4-one]	206
